# Data from patent US6340573B1, “Chromogenic substrates for detecting bacterial hydrolases” (Bio Merieux, priority 1998, dated 2002).
# Test system: Alanine-aminopeptidase
# Assay: GRAM identification with impregnated bottle brush
# Assay type: cell-based, Gram-negative bacteria
# Conditions: for coloration intensity: semiquantitative scale up to 4
# Text: According to a representative example, the GRAM identification process uses a substrate based on aminobenzene or a derivative thereof, such as DiMethyl-paraPhenyleneDiamine (DMpPD). In the example which follows, the substrate consists of Alanine-Dimethyl-paraPhenyleneDiamine (AlaDMpPD).
# It functions as follows. Enzymatic hydrolysis causes release of the DMpPD group. Next, the DMPD binds with α-naphthol (or a derivative) by oxidative coupling facilitated by an oxidizing agent, potassium ferricyanide (K3Fe(CN)6). This then causes formation of a violet-gray complex.
# Another device has been defined, which is even more specific in Gram identification and which can also be used with blood agars of Columbia type. It consists of:
# a medium consisting of a blood agar of Columbia type (with or without AlaDMpPD), and
# a reaction mixture which impregnates a bottle brush and which is constituted on the basis of α-naphthol, potassium ferricyanide and AlaDMpPD and then dried.
# This reaction mixture contained in the bottle brush was further improved by adding a step of drying the bottle brushes, which facilitates their subsequent manipulation.
# The exact composition is as follows:
# for the agar, presence or absence of AlaDMpPD at 0.075 gram per liter (g/l), and
# α-naphthol from 0.01 to 5 g/l, preferably from 0.1 to 1 g/l, and for example 0.5 g/l,
# potassium ferricyanide from 0.01 to 5 g/l, preferably from 0.1 to 1 g/l, and for example 0.5 g/l, and
# AlaDMpPD from 0.01 to 5 g/l, preferably from 0.1 to 1 g/l, and for example 0.35 g/l.
# The results obtained in terms of sensitivity and specificity are thus the best obtained. In this case, the detection of the reaction is not instantaneous. It takes 15 to 30 seconds (s) to observe the appearance of any coloration, this being the time required for hydrolysis of the substrate by the bacterial aminopeptidase. […]
substance,measurement,setting,value
Alanine-Dimethyl-paraPhenyleneDiamine [AlaDMpPD],coloration intensity,Gram-negative bacteria except Pseudomonas,greater than 2
same,coloration intensity,Gram-positive bacteria or false-positives except S. pyogenes,less than 1
same,detection time,"most Gram-positive bacteria or false-positives, apart from S. pyogenes",> 10 s
